Experimental data from PMC10023787, “Trio-pharmacophore DNA-encoded chemical library for simultaneous selection of fragments and linkers” (Nature Communications, 2023).
“Also recorded” adds a separate entry of the source. Read-outs that look alike come from different tables or passages of the source.

Legend:
[1] = target: T1, MMP-9 (Homo sapiens, UniProt P14780); assay: MMP-9 inhibition assay (fluorogenic peptide substrate); assay type: biochemical; settings: for inhibitory effect: in words
T1 construct: purchased Sino Biological 10327-HNAH
Procedure, shortened: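 Hydrolysis of DNP-Pro-Leu-Gly-Met-Trp-Ser-Arg (25 μM final) was tracked kinetically at em 360 nm over 30 min. Enzymes, APMA-activated and at 10 nM (MMP-9) or 6.5 nM (MMP-2) final, sat 30 min at RT with inhibitor in pH 7.5 Tris buffer with CaCl2 and Brij 35 first. Logistic fitting of Vmax against concentration gave IC50, in triplicate.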

[2] = target: T2, MMP-2 (Homo sapiens, UniProt P08253); assay: De novo T-DEL selection against MMP-2, NGS decoding; assay type: binding; settings: for MMP2 SL-C Enrichment Fold: enrichment fold of sub-library SL-C member; for MMP2 SL-C Enrichment Fold / MMP2 SL-C Count: MMP-2 selection, Figure 4a source data; for MMP2 SL-C Count: sequence count of sub-library SL-C member
T2 construct: purchased Sino Biological 10082-HNAH
T2 sequence (P08253 110-660): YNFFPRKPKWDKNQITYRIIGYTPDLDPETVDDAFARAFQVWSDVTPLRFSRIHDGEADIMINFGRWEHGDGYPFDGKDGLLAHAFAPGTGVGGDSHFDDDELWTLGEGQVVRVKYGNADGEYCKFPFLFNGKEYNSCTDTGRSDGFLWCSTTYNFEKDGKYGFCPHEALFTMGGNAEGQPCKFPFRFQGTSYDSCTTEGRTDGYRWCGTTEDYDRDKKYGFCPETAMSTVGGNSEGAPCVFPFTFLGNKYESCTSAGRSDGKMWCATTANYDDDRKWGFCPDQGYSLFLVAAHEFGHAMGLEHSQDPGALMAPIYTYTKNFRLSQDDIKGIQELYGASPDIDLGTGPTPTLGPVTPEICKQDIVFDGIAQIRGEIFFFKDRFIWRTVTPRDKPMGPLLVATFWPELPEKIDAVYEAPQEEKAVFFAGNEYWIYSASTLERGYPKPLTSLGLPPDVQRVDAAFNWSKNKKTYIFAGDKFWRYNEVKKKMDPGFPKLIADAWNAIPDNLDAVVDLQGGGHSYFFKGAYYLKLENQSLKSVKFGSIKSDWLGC
Source text: Matrix metalloproteinases (MMPs) are zinc-dependent endopeptidases capable of degrading and remodeling extracellular matrix components[46],[47]. They are attractive therapeutic targets as high expression levels were detected in various diseases, such as inflammatory diseases, and at different stages of cancers, including metastasis, invasion, and angiogenesis[47]–[53]. As shown in Supplementary Fig. 3c, we performed selections against the two gelatinases (human MMP-2 and human MMP-9) to identify binding fragments for later design and synthesis of small molecule inhibitors. After selection, the three sub-libraries were decoded, and the enrichment was calculated by dividing the post-selection fraction (count/total counts) by the pre-selection fraction (Fig. 4a and Supplementary Fig. 13).
4 µg of MMP-2/MMP-9 was dissolved in 100 µl of selection buffer containing 25 mM Tris-base, 10 mM CaCl2, 150 mM NaCl, 0.05% Tween 20, pH 7.5. 10 µl of 4-Aminophenylmercuric acetate (APMA) (100 mM) solution was added to the protein solution and incubated at 37 °C for 1 h. After activation, the solution was added on top of 40 µl pre-washed Ni-NTA resin and incubated for 30 min on a rotary shaker. The supernatant was discarded, and the resin was washed three times with the selection buffer.
For each independent selection, three sub-libraries were mixed in the selection buffer with a final concentration of 40 nM of each sub-library in 100 µl. The mixture was heat denatured at 90 °C for 1 min and slowly cooled down to allow the formation of the trio-pharmacophore library. The dynamic dual-pharmacophore DEL was provided by DyNAbind GmbH (Merck, DYNA001).
The assembled library was incubated with the protein-bound solid support for 2 h at RT on a rotary shaker. In parallel, selection on bare solid support served as the negative control to exclude promiscuous binders on the resin. After panning, the supernatant was discarded, and the resin was washed three times with 1 ml selection buffer. Finally, 100 µl of 50 mM Tris buffer, pH 7.4 was added to resuspend the resin and the resin was incubated at 95 °C for 5 min to denature the protein, release, and collect the bound library members.
The eluted library members were subjected to sample preparation for NGS. NGS preparation was achieved by two-step PCR. First, the individual selection was indexed using primers containing unique sequences corresponding to each selection. The amplified product was purified from 2% agarose gel. Second, the purified DNA from all selections were pooled in equal amount and subjected to the 2nd PCR step to attach sequences compatible with the NGS flow cell and the sequencing primers. NGS was performed by Novogene UK with Novaseq 6000. Raw data files (fastq files) obtained were decoded using a custom python script and excel. The sequence reads corresponding to each sample was retrieved by searching for the correct index unique to each selection. Then, the code region was extracted from each sequence and assigned to the corresponding identity. The count of each code in each selection sample was obtained by looping through the total reads and counting the occurrence of each code. The enrichment fold of each compound was calculated by first, dividing the count by the total count to get the abundance, second, the abundance after the selection was divided by the abundance of pre-selection to reflect the distribution change of the compound. Next, the enrichment fold was plotted against the count for each member of the library to give the scatter plots as in Fig. 4.

[3] = read-out: Mean (MMP-9, Supplementary fig 16)
[4] = read-out: Mean (MMP-9 dose-response, Supplementary fig 15)
[5] = read-out: Mean (dose-response, Supplementary fig 17)
[6] = read-out: Normalized activity (Mean)

T1 sequence (P14780 107-707 limits assumed): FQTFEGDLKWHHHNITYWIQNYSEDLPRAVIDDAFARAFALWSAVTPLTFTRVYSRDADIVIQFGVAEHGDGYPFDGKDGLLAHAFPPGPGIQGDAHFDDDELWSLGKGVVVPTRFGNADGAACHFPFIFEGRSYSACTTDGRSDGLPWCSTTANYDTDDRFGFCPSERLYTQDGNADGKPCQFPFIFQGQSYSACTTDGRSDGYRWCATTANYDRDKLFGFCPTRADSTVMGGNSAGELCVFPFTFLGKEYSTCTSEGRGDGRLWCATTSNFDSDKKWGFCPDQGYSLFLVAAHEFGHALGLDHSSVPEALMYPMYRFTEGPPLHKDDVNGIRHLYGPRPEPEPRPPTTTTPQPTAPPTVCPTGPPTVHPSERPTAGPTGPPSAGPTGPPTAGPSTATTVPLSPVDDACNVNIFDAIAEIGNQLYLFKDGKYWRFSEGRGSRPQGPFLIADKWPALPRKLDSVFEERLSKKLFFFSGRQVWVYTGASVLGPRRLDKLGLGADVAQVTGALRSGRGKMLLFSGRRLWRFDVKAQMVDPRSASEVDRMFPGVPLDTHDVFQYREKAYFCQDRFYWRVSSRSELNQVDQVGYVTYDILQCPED

Cn1c(O)nc2cc(C(=O)O)cnc21 [Compound 826]
remaining activity at 0.12207 µM ([1]; Figure 5b, fragment concentration 0.12207 µM, read-out: Normalized activity (Mean)): 95.1% | remaining activity at 0.488281 µM ([1]; Figure 5b, fragment concentration 0.488281 µM, read-out: Normalized activity (Mean)): 93.3% | remaining activity at 1.95312 µM ([1]; Figure 5b, fragment concentration 1.95312 µM, read-out: Normalized activity (Mean)): 97.2% | remaining activity at 7.8125 µM ([1]; Figure 5b, fragment concentration 7.8125 µM, read-out: Normalized activity (Mean)): 99.6% | remaining activity at 31.25 µM ([1]; Figure 5b, fragment concentration 31.25 µM, read-out: Normalized activity (Mean)): 92% | remaining activity at 125 µM ([1]; Figure 5b, fragment concentration 125 µM, read-out: Normalized activity (Mean)): 94.2% | remaining activity at 500 µM ([1]; Figure 5b, fragment concentration 500 µM, read-out: Normalized activity (Mean)): 83% | remaining activity at 0.12 µM ([1]; MMP-9, concentration 0.12 µM, read-out: Mean (MMP-9, Supplementary fig 16)): 95.1% | remaining activity at 0.49 µM ([1]; MMP-9, concentration 0.49 µM, read-out: Mean (MMP-9, Supplementary fig 16)): 93.3% | remaining activity at 1.95 µM ([1]; MMP-9, concentration 1.95 µM, read-out: Mean (MMP-9, Supplementary fig 16)): 97.2% | remaining activity at 7.81 µM ([1]; MMP-9, concentration 7.81 µM, read-out: Mean (MMP-9, Supplementary fig 16)): 99.6% | remaining activity at 31.25 µM ([1]; MMP-9, concentration 31.25 µM, read-out: Mean (MMP-9, Supplementary fig 16)): 92% | remaining activity at 125 µM ([1]; MMP-9, concentration 125.00 µM, read-out: Mean (MMP-9, Supplementary fig 16)): 94.2% | remaining activity at 500 µM ([1]; MMP-9, concentration 500.00 µM, read-out: Mean (MMP-9, Supplementary fig 16)): 83% | remaining activity at 0.12 µM ([1]; MMP-9, concentration 0.12 µM, read-out: Mean (MMP-9 dose-response, Supplementary fig 15)): 95.1% | remaining activity at 0.12 µM ([1]; MMP-9, concentration 0.12 µM, read-out: Mean (dose-response, Supplementary fig 17)): 82.6% | remaining activity at 0.49 µM ([1]; MMP-9, concentration 0.49 µM, read-out: Mean (MMP-9 dose-response, Supplementary fig 15)): 93.3% | remaining activity at 0.49 µM ([1]; MMP-9, concentration 0.49 µM, read-out: Mean (dose-response, Supplementary fig 17)): 80.6% | remaining activity at 1.95 µM ([1]; MMP-9, concentration 1.95 µM, read-out: Mean (MMP-9 dose-response, Supplementary fig 15)): 97.2% | remaining activity at 1.95 µM ([1]; MMP-9, concentration 1.95 µM, read-out: Mean (dose-response, Supplementary fig 17)): 99.3% | remaining activity at 7.81 µM ([1]; MMP-9, concentration 7.81 µM, read-out: Mean (MMP-9 dose-response, Supplementary fig 15)): 99.6% | remaining activity at 7.81 µM ([1]; MMP-9, concentration 7.81 µM, read-out: Mean (dose-response, Supplementary fig 17)): 88.5% | remaining activity at 31.25 µM ([1]; MMP-9, concentration 31.25 µM, read-out: Mean (MMP-9 dose-response, Supplementary fig 15)): 92% | remaining activity at 31.25 µM ([1]; MMP-9, concentration 31.25 µM, read-out: Mean (dose-response, Supplementary fig 17)): 96.1% | remaining activity at 125 µM ([1]; MMP-9, concentration 125.00 µM, read-out: Mean (MMP-9 dose-response, Supplementary fig 15)): 94.2% | remaining activity at 125 µM ([1]; MMP-9, concentration 125.00 µM, read-out: Mean (dose-response, Supplementary fig 17)): 87.7% | remaining activity at 500 µM ([1]; MMP-9, concentration 500.00 µM, read-out: Mean (MMP-9 dose-response, Supplementary fig 15)): 83% | remaining activity at 500 µM ([1]; MMP-9, concentration 500.00 µM, read-out: Mean (dose-response, Supplementary fig 17)): 84% | inhibitory effect [1]: No inhibitory effects could be measured; also recorded: did not exhibit meaningful activity | MMP2 SL-A Count ([2]; NGS sequence count of sub-library SL-A building block, de novo T-DEL selection against MMP-2): 1212 | MMP2 SL-C Enrichment Fold [2]: 2.518 | MMP2 SL-C Count [2]: 5893 | MMP2 SL-A Enrichment Fold ([2]; sub-library SL-A building block, de novo T-DEL selection against MMP-2): 1.562

O=C(O)c1cncc(O)c1 [Compound 828]
inhibitory effect [1]: high µM range | IC50 ([1]; mean ± SE, n.d: not detected, Fig. 5e prints no unit, µM, read-out: IC50): 271 ± 12.4 µM | remaining activity at 0.08 µM [1, 3]: 98.6% | remaining activity at 0.39 µM [1, 3]: 97.4% | remaining activity at 1.95 µM [1, 3]: 84.3% | remaining activity at 9.75 µM [1, 3]: 88.7% | remaining activity at 48.76 µM [1, 3]: 80.3% | remaining activity at 243.8 µM [1, 3]: 54.4% | remaining activity at 1219 µM [1, 3]: 0% | remaining activity at 0.08 µM [1, 4]: 98.6% | remaining activity at 0.39 µM [1, 4]: 97.4% | remaining activity at 1.95 µM [1, 4]: 84.3% | remaining activity at 9.75 µM [1, 4]: 88.7% | remaining activity at 48.76 µM [1, 4]: 80.3% | remaining activity at 243.8 µM [1, 4]: 54.4% | remaining activity at 1219 µM [1, 4]: 0% | remaining activity at 0.08 µM [1, 5]: 98.6% | remaining activity at 0.39 µM [1, 5]: 97.4% | remaining activity at 1.95 µM [1, 5]: 84.3% | remaining activity at 9.75 µM [1, 5]: 88.7% | remaining activity at 48.76 µM [1, 5]: 80.3% | remaining activity at 243.8 µM [1, 5]: 54.4% | remaining activity at 1219 µM [1, 5]: 0% | remaining activity at 0.078016 µM [1, 6]: 98.6% | remaining activity at 0.39008 µM [1, 6]: 97.4% | remaining activity at 1.9504 µM [1, 6]: 84.3% | remaining activity at 9.752 µM [1, 6]: 88.7% | remaining activity at 48.76 µM [1, 6]: 80.3% | remaining activity at 243.8 µM [1, 6]: 54.4% | remaining activity at 1219 µM [1, 6]: 0% | MMP2 SL-C Enrichment Fold [2]: 4.434 | MMP2 SL-C Count [2]: 13025
